# Measurements published in US12435108B2, “Teixobactin analogue and use thereof” (SUNSHINE LAKE PHARMA CO., LTD., priority 2019, dated 2025).
# Read-outs that look alike come from different tables or passages of the source.
# Experiments:
# [1] = tested on: Streptococcus faecalis (SF); settings: agar plate two-fold dilution, CLSI, 35 °C, 18 h
# Method: (§1) For the determination of the minimum inhibitory concentration (MIC), according to the CLSI standard, a two-fold dilution method with a plate and a Denlay multi-point inoculator were used to conduct the drug sensitivity test. The test bacteria were enriched with MH broth or brain heart infusion. The drug solution was diluted two-fold with MH broth to prepare various required concentrations, and appropriate amounts were added to the plates respectively. After the MH agar medium was melted, it was quantitatively poured into the plates containing the drug solution and mixed uniformly. The final concentrations of the samples were: 128, 64, 32, 16, 8, 4, 2, 1, 0.5, 0.25, 0.125, 0.063, 0.031, 0.016, 0.008, 0.004 μg/mL, respectively. The test bacteria were inoculated (inoculation amount was 10^4 cfu/point) and then incubated at constant temperature of 35 □. The results were observed after 18 h. The minimum concentration of the drug contained in the sterile growth plate was the minimum inhibitory concentration (MIC). Selection of strain types: MRSA (SA86 and SA88), MSSA (ATCC29213), Enterococcus (ET6) and Streptococcus faecalis (SF).
# MRSA (SA88) = settings: agar plate two-fold dilution, CLSI, 35 °C, 18 h
# Method: as §1
# MRSA (SA86) = settings: agar plate two-fold dilution, CLSI, 35 °C, 18 h
# Method: as §1
# Enterococcus (ET6) = settings: agar plate two-fold dilution, CLSI, 35 °C, 18 h
# Method: as §1
# MSSA (ATCC29213) [2] = settings: Test Method 1: agar plate two-fold dilution, CLSI, 35 °C, 18 h
# Method: as §1
# [3] = tested on: Mycobacterium smegmatis mc2155; assay: MIC, 96-well dilution in 7H9 medium (Test Method 3); format: cell-based; settings: 96-well plate, 35±2 °C, 48 hours, highest concentration 64 μg/mL
# MRSA (ATCC43300) = settings: ATCC43300
# Method: (§2) For the determination of the minimum inhibitory concentration (MIC), according to the CLSI standard, the minimum inhibitory concentration of 3 ATCC standard strains (2 strains of Staphylococcus aureus and 1 strain of Enterococcus faecium) was tested by two independent repeated experiments. Compounds were diluted two-fold in a 96-well plate from the highest detection concentration of 64 μg/mL. The test plate was placed in a common incubator and incubated at 35±2° C. for 20-24 hours. The growth of bacteria in the wells was observed and recorded. Inoculation method: 5-10 bacterial single colonies from the solid medium plate resuspended in 500 μL of 1.02×CAMHB, and then OD600 was adjusted to 0.1-0.15 with a spectrophotometer; then the bacteria were diluted 300-fold with 1.02×CAMHB to ˜2×10^5 CFU/ml (stepwise dilution, first 10-fold and then 30-fold), and the prepared bacterial inoculum was inoculated in 96-well plate within 15 minutes, the number of inoculated bacteria could be obtained by plate count. Colony count: the inoculated bacteria was diluted with liquid medium from 10^−1 to 10^−3 (such as 100 μL of bacterial inoculum+900 μL of 1.02×CAMHB); 100 μl of the above bacterial dilution was evenly spread on a TSA or TSA II plate, with 2 replicates per dilution. After the medium was absorbed by TSA or TSA II for 10 minutes, the plate was inverted and cultured at 35±2° C. for 24 hours in an incubator. Record of minimum inhibitory concentration and statistics of colony count: the minimum inhibitory concentration of each compound was recorded referring to the CLSI standard; the number of colonies of bacterial inoculum of different dilutions on the TSA or TSA II plate was counted and the amount of bacterial inoculation was calculated. Selection of strain types: MRSA (ATCC43300), MSSA (ATCC29213) and VRE (ATCC700221).
# MSSA (ATCC29213) [4] = settings: ATCC29213
# Method: as §2
# VRE (ATCC700221) = settings: ATCC700221
# Method: as §2
SMILES,"In vitro antibacterial activity MIC, Streptococcus faecalis(SF) [1]","In vitro antibacterial activity MIC, MRSA SA88 (MRSA (SA88))","In vitro antibacterial activity MIC, MRSA SA86 (MRSA (SA86))","In vitro antibacterial activity MIC, Enterococcus (ET6) (Enterococcus (ET6))","In vitro antibacterial activity MIC, MSSA(ATCC29213) (MSSA (ATCC29213) [2])","In vitro antibacterial activity MIC, Mycobacterium smegmatis mc2155 [3]","In vitro antibacterial activity MIC, MRSA(ATCC43300) (MRSA (ATCC43300))","In vitro antibacterial activity MIC, MSSA(ATCC29213) (MSSA (ATCC29213) [4])","In vitro antibacterial activity MIC, VRE(ATCC700221) (VRE (ATCC700221))"
C=C[C@@H]1C[C@@]12NC(=O)[C@H](C)NC(=O)[C@H](NC(=O)[C@H](CO)NC(=O)[C@@H](NC(=O)[C@H](NC(=O)[C@@H](CCC(N)=O)NC(=O)[C@H](CO)NC(=O)[C@@H](NC(=O)[C@@H](Cc1ccccc1)NC)[C@@H](C)CC)[C@@H](C)CC)[C@@H](C)CC)[C@H](C)NC(=O)[C@H]([C@@H](C)CC)NC2=O.O=C(O)C(F)(F)F [Example 4],8 µg/mL,4 µg/mL,8 µg/mL,8 µg/mL,4 µg/mL,–,–,–,–
CC[C@H](C)[C@H](NC(=O)[C@@H](Cc1ccccc1)NC)C(=O)N[C@@H](CO)C(=O)N[C@H](CCC(N)=O)C(=O)N[C@@H](C(=O)N[C@H](C(=O)N[C@@H](CO)C(=O)N[C@H]1C(=O)N[C@@H](C)C(=O)NC2(CCCCCC2)C(=O)N[C@@H]([C@@H](C)CC)C(=O)O[C@H]1C)[C@@H](C)CC)[C@@H](C)CC.O=C(O)C(F)(F)F [Example 9],8 µg/mL,–,4 µg/mL,4 µg/mL,4 µg/mL,–,–,–,–
CC[C@H](C)[C@H](NC(=O)[C@@H](Cc1ccccc1)NC)C(=O)N[C@@H](CO)C(=O)N[C@H](CCC(N)=O)C(=O)N[C@@H](C(=O)N[C@H](C(=O)N[C@@H](CO)C(=O)N[C@H]1C(=O)N[C@@H](C)C(=O)NC2(CC2)C(=O)N[C@@H]([C@@H](C)CC)C(=O)O[C@H]1C)[C@@H](C)CC)[C@@H](C)CC.O=C(O)C(F)(F)F [Example 5],8 µg/mL,–,4 µg/mL,8 µg/mL,4 µg/mL,–,–,–,–
CC[C@H](C)[C@H](NC(=O)[C@@H](Cc1ccccc1)NC)C(=O)N[C@@H](CO)C(=O)N[C@H](CCC(N)=O)C(=O)N[C@@H](C(=O)N[C@H](C(=O)N[C@@H](CO)C(=O)N[C@H]1C(=O)N[C@@H](C)C(=O)NC2(CCC2)C(=O)N[C@@H]([C@@H](C)CC)C(=O)O[C@H]1C)[C@@H](C)CC)[C@@H](C)CC.O=C(O)C(F)(F)F [Example 6],–,–,8 µg/mL,–,8 µg/mL,–,–,–,–
CC[C@H](C)[C@H](NC(=O)[C@@H](Cc1ccccc1)NC)C(=O)N[C@@H](CO)C(=O)N[C@H](CCC(N)=O)C(=O)N[C@@H](C(=O)N[C@H](C(=O)N[C@@H](CO)C(=O)N[C@H]1C(=O)N[C@@H](C)C(=O)NC2(CCCCC2)C(=O)N[C@@H]([C@@H](C)CC)C(=O)O[C@H]1C)[C@@H](C)CC)[C@@H](C)CC.O=C(O)C(F)(F)F [Example 8],–,4 µg/mL,8 µg/mL,–,8 µg/mL,–,–,–,–
CC[C@H](C)[C@H](NC(=O)[C@@H](Cc1ccccc1)NC)C(=O)N[C@@H](CO)C(=O)N[C@H](CCC(N)=O)C(=O)N[C@@H](C(=O)N[C@H](C(=O)N[C@@H](CO)C(=O)N[C@H]1C(=O)N[C@@H](C)C(=O)N[C@@]2(C[C@H]2CC(F)F)C(=O)N[C@@H]([C@@H](C)CC)C(=O)O[C@H]1C)[C@@H](C)CC)[C@@H](C)CC.O=C(O)C(F)(F)F [Example 1],–,–,4 µg/mL,4 µg/mL,2 µg/mL,8 µg/mL,–,–,–
CC[C@H](C)[C@H](NC(=O)[C@H](N)Cc1ccc(-c2ccccc2)cc1)C(=O)N[C@@H](CO)C(=O)N[C@H](CCC(N)=O)C(=O)N[C@@H](C(=O)N[C@H](C(=O)N[C@@H](CO)C(=O)N[C@H]1C(=O)N[C@@H](C)C(=O)N[C@@]2(C[C@H]2CC(F)F)C(=O)N[C@@H]([C@@H](C)CC)C(=O)O[C@H]1C)[C@@H](C)CC)[C@@H](C)CC [Example 13],8 µg/mL,8 µg/mL,8 µg/mL,8 µg/mL,8 µg/mL,–,–,–,–
CC[C@H](C)[C@H](NC(=O)[C@@H](Cc1ccccc1)NC)C(=O)N[C@@H](CO)C(=O)N[C@H](CCC(N)=O)C(=O)N[C@@H](C(=O)N[C@H](C(=O)N[C@@H](CO)C(=O)N[C@H]1C(=O)N[C@@H](C)C(=O)N[C@@]2(C[C@H]2CCN)C(=O)N[C@@H]([C@@H](C)CC)C(=O)O[C@H]1C)[C@@H](C)CC)[C@@H](C)CC.O=C(O)C(F)(F)F [Example 10],2 µg/mL,4 µg/mL,4 µg/mL,2 µg/mL,2 µg/mL,–,–,–,–
CC[C@H](C)[C@H](NC(=O)[C@@H](Cc1ccc2ccccc2c1)NC)C(=O)N[C@@H](CO)C(=O)N[C@H](CCC(N)=O)C(=O)N[C@@H](C(=O)N[C@H](C(=O)N[C@@H](CO)C(=O)N[C@H]1C(=O)N[C@@H](C)C(=O)NC2(CC2)C(=O)N[C@@H]([C@@H](C)CC)C(=O)O[C@H]1C)[C@@H](C)CC)[C@@H](C)CC.O=C(O)C(F)(F)F [Example 23],–,–,–,–,–,–,2 µg/mL,4 µg/mL,4 µg/mL
CC[C@H](C)[C@H](NC(=O)[C@@H](Cc1ccccc1)NC)C(=O)N[C@@H](CO)C(=O)N[C@H](CCC(N)=O)C(=O)N[C@@H](C(=O)N[C@H](C(=O)N[C@@H](CO)C(=O)N[C@H]1C(=O)N[C@@H](C)C(=O)N[C@]2(C[C@@H]2CC(F)F)C(=O)N[C@@H]([C@@H](C)CC)C(=O)N[C@H]1C)[C@@H](C)CC)[C@@H](C)CC.O=C(O)C(F)(F)F [Example 2],8 µg/mL,2 µg/mL,4 µg/mL,4 µg/mL,4 µg/mL,–,–,–,–
